What was measured:
Assay in all cases: relative viability (nuclei count vs DMSO), 5 days (fraction); higher = more cells survive
Bortezomib + Foretinib = compound: CC(C)C[C@H](NC(=O)[C@H](Cc1ccccc1)NC(=O)c1cnccn1)B(O)O [Bortezomib] + COc1cc2c(Oc3ccc(NC(=O)C4(C(=O)Nc5ccc(F)cc5)CC4)cc3F)ccnc2cc1OCCCN1CCOCC1 [Foretinib] (partner 0.25 µM)
In short: (§1)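 The day after seeding in 1536-well plates, lung cancer cell lines were treated by pin tool with a single drug, or with a fixed anchor-drug dose together with five library-drug doses (not always all listed) in √10 steps. After 5 days, a combined fix-and-stain solution (final 0.05% Triton X-100, 1% formaldehyde, 1 ug/ml Hoechst) was added. Nuclei counted on 4× images gave relative viability as treated counts over vehicle counts, reported as the median of duplicate plates.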

Bortezomib + Pemetrexed = compound: CC(C)C[C@H](NC(=O)[C@H](Cc1ccccc1)NC(=O)c1cnccn1)B(O)O [Bortezomib] + Nc1nc2[nH]cc(CCc3ccc(C(=O)N[C@@H](CCC(=O)O)C(=O)O)cc3)c2c(=O)[nH]1 [Pemetrexed] (partner 0.2 µM)
In short: as §1

[1] = compound: CC1=CC(=NN1)NC2=CC(=NC(=N2)/C=C/C3=CC=CC=C3)N4CCN(CC4)C + CC(C)C[C@H](NC(=O)[C@H](Cc1ccccc1)NC(=O)c1cnccn1)B(O)O [Bortezomib] (partner 0.002 µM)
In short: as §1

[2] = compound: CC1=CC(=NN1)NC2=CC(=NC(=N2)/C=C/C3=CC=CC=C3)N4CCN(CC4)C + COc1cccc2cc(-c3nc([C@H]4CC[C@H](C(=O)O)CC4)n4ncnc(N)c34)[nH]c12 [OSI-027] (partner 0.5 µM)
In short: as §1

| Cell Line | relative viability (Bortezomib + Foretinib; first compound 0.0002 µM) | relative viability (Bortezomib + Foretinib; first compound 0.000632 µM) | relative viability (Bortezomib + Foretinib; first compound 0.002 µM) | relative viability (Bortezomib + Foretinib; first compound 0.006325 µM) | relative viability (Bortezomib + Foretinib; first compound 0.02 µM) | relative viability (Bortezomib + Pemetrexed; first compound 0.0002 µM) | relative viability (Bortezomib + Pemetrexed; first compound 0.002 µM) | relative viability (Bortezomib + Pemetrexed; first compound 0.006325 µM) | relative viability (Bortezomib + Pemetrexed; first compound 0.02 µM) | relative viability ([1]; first compound 0.08 µM) | relative viability ([1]; first compound 0.253 µM) | relative viability ([1]; first compound 0.8 µM) | relative viability ([1]; first compound 2.53 µM) | relative viability ([1]; first compound 8 µM) | relative viability ([2]; first compound 0.08 µM) | relative viability ([2]; first compound 0.253 µM) | relative viability ([2]; first compound 0.8 µM) | relative viability ([2]; first compound 2.53 µM) | relative viability ([2]; first compound 8 µM) | relative viability (Bortezomib + Pemetrexed; first compound 0.000632 µM) |
| --- | --- | --- | --- | --- | --- | --- | --- | --- | --- | --- | --- | --- | --- | --- | --- | --- | --- | --- | --- | --- |
| NCI-H23 | 0.895 | 0.972 | 0.861 | 0.166 | 0.14 | 0.556 | 0.595 | 0.23 | 0.143 | 0.909 | 0.949 | 0.826 | 0.196 | 0.139 | 0.417 | 0.563 | 0.539 | 0.291 | 0.115 | – |
| NCI-H1355 | 0.944 | 0.983 | 0.998 | 0.155 | 0.14 | 1.02 | 1.06 | 0.711 | 0.13 | 1.16 | 1.17 | 1.16 | 0.885 | 0.168 | 0.378 | 0.374 | 0.389 | 0.213 | 0.105 | 0.97 |
| COR-L23 | 0.934 | 0.931 | 0.874 | 0.0924 | 0.0681 | 0.186 | 0.201 | 0.0763 | 0.0792 | 0.972 | 1.29 | 1 | 0.196 | 0.0895 | 0.817 | 0.753 | 0.67 | 0.361 | 0.0841 | 0.196 |
| NCI-H2023 | 0.911 | 0.802 | 1.06 | 0.282 | 0.0757 | 0.25 | 0.246 | 0.0916 | 0.0786 | 1.01 | 1.12 | 0.91 | 0.0954 | 0.0652 | 0.374 | 0.45 | 0.341 | 0.0653 | 0.041 | 0.247 |
| A-427 | 1.02 | 1.1 | 0.932 | 0.483 | 0.122 | 0.914 | 0.968 | 0.235 | 0.182 | 1.1 | 1.06 | 1.08 | 0.635 | 0.361 | 0.531 | 0.295 | 0.466 | 0.192 | 0.0905 | 0.971 |
| UMC-11 | 0.801 | 0.97 | 0.96 | 0.449 | 0.175 | 0.694 | 0.745 | 0.39 | 0.17 | 0.718 | 0.726 | 0.636 | 0.12 | 0.08 | 0.494 | 0.458 | 0.339 | 0.141 | 0.133 | 0.875 |
| NCI-H596 | 0.88 | 0.892 | 0.613 | 0.17 | 0.138 | 0.487 | 0.45 | 0.268 | 0.221 | 1.2 | 1.01 | 0.756 | 0.616 | 0.268 | 0.633 | 0.72 | 0.671 | 0.34 | 0.247 | 0.488 |
| LU99A | 0.887 | 0.721 | 0.812 | 0.755 | 0.227 | 0.158 | 0.198 | 0.174 | 0.169 | 1.13 | 0.993 | 0.779 | 0.25 | 0.127 | 0.292 | 0.327 | 0.28 | 0.256 | 0.155 | 0.167 |
| NCI-H2009 | 1.14 | 1.21 | 1.23 | 0.237 | 0.0866 | 1.05 | 1.02 | 0.553 | 0.0697 | 1.04 | 0.54 | 1.11 | 0.423 | 0.15 | 0.615 | 0.672 | 0.638 | 0.227 | 0.111 | 1.05 |
